In general, EC50 refers to the concentration that produces a half-maximal response.

Our source for the EC50 values is patent US7601746B2 (Shionogi & Co., Ltd., priority 2003, dated 2009).

For this assay, the target named is T1, human TPO receptor (hTPOR) (Homo sapiens, UniProt P40238).
T1 construct: expressed in transfected cells; host or cells: BaF-B03 (murine IL-3 dependent cell line)
T1 sequence (P40238 26-635): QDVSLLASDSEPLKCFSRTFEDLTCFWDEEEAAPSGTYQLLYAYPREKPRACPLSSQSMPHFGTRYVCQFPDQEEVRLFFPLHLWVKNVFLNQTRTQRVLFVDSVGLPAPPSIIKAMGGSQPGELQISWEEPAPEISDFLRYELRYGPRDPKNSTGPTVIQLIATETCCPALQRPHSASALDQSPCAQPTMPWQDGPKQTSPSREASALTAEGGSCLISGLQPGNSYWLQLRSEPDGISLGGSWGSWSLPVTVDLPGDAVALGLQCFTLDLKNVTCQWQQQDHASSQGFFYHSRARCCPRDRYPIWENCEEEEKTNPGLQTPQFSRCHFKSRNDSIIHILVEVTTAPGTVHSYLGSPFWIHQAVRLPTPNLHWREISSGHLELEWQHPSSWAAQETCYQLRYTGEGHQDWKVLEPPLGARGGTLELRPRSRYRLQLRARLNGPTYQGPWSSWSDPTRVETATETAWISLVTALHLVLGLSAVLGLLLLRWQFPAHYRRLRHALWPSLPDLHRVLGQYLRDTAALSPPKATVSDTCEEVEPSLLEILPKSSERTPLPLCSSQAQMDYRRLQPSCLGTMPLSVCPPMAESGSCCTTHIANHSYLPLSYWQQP
Nature of the assay: Thrombopoietic activity: proliferation of TPO dependent BaF/hTPOR cells (WST-1, absorbance at 450 nm). Type of assay: cell-based. Particulars: 20 h + 4 h WST-1, ED50 = half concentration of the concentration showing the maximum thrombopoietic activity, Table 1. The text has this: The TPO dependent BaF/hTPOR cell line which was established by introducing human TPO receptor (hTPOR) into BaF-B03 cells according to Collins et al (J. Cell. Physiol., 137:293-298 (1988)) was used to test the thrombopoietic activity of the present compound. The DNA sequences and encoded peptide sequences for human hTPOR have been described by Vigon et al (Proc. Natl. Acad. Sci. USA, 89:5640-5644 (1992)). TPO dose not have any ability to support proliferation of interlukin-3 dependent parental cell line BaF-B03. BAF/hTPOR cells were maintained in RPMI medium and WEHI-3B conditioned medium as a source of murine interleukin-3 (IL-3). These cells were washed and resuspended in RPMI medium without a source of murine IL-3 and seeded into each well of 96-well microtiter plates at a density of 5×10^4 cells per well in the absence or presence of various concentration of hTPO or the present compound. After incubation at 37° C. for 20 hours in the 5% CO2 incubator, 10% WST-1 reagent (Takara Biomedicals, Japan) was added to each wells and the cells were further incubated for 4 hours. The absorbance at 450 nm was measured. Tables 1 and 2 exemplify the ED50 for tested compounds of the present invention, wherein the ED50 is the half concentration of the concentration showing the maximum thrombopoietic activity.
In general terms: Tetrazolium dyes change colour on reduction, which living cells bring about.
Turning to “3-[2,6-difluoro-4-(4-{2-fluoro-3-{1-(3-methylbutyloxypropyl)phenyl]thiazol-2-ylcarbamoyl}phenyl)-2-methylacrylic acid [Compound B18]”, the EC50 came to 0.57 nM. Next, “3-{2,6-difluoro-4,5-dihydro-4-[6-(3-ethyloxypropyl)naphtho[1,2-d]thiazol-2-ylcabamoyl]phenyl}-2-methylacrylic acid [Compound A8]”: 2.9 nM. Next, `COc1c(COCCC(C)(C)C)cccc1-c1csc(NC(=O)c2cc(Cl)c(C=C(C)C(=O)O)c(Cl)c2)n1` (stereo in doubt) [Compound B1936, (Z)-3-(2,6-dichloro-4-{4-[3-(3,3-dimethylbutyloxymethyl)-2-methyloxyphenyl]thiazol-2-ylcarbamoyl}phenyl)-2-methylacrylic acid]: 17.1 nM.

In the case of `COC(=Cc1c(F)cc(C(=O)Nc2nc(-c3cccc(COCC(C)(C)C)c3OC)cs2)cc1F)C(=O)O` (stereo in doubt) [Compound B2020, (E)-3-(4-{4-[3-(2,2-dimethylpropyloxymethyl)-2-methyloxyphenyl]thiazol-2-ylcarbamoyl}-2,6-difluorophenyl)-2-methyloxyacrylic acid], the EC50 came out at 10.9 nM.

As to `CCCC(CCc1cccc2c1CCc1sc(NC(=O)c3cc(F)c(C=C(C)C(=O)O)c(F)c3)nc1-2)OC` (stereo not shown) [Compound A1, 3-{2,6-difluoro-4-[4,5-dihydro-6-(3-methyloxyhexyl)naphtho[1,2-d]thiazol-2-ylcarbamoyl]phenyl}-2-methylacrylic acid], the EC50 was 2.27 nM. For the compound `CCCCCc1cccc2c1CCc1sc(NC(=O)c3cc(F)c(C=C(C)C(=O)O)c(F)c3)nc1-2` [Compound A2, 3-[2,6-difluoro-4-(4,5-dihydro-6-pentylnaphtho[1,2-d]thiazol-2-ylcabamoyl)phenyl]-2-methylacrylic acid], the concentration for a half-maximal effect (EC50) worked out at 4 nM. For `CC(=Cc1c(F)cc(C(=O)Nc2nc3c(s2)CCc2c(CCC(C)(C)C)cccc2-3)cc1F)C(=O)O` [Compound A3, 3-{2,6-difluoro-4-[4,5-dihydro-6-(3,3-dimethylbutyl)naphtho[1,2-d]thiazol-2-ylcabamoyl)phenyl]-2-methylacrylic acid], the EC50 was found to be 4 nM. Next, `COC(CCc1cccc2c1CCc1sc(NC(=O)c3cc(F)c(C=C(C)C(=O)O)c(F)c3)nc1-2)C(C)(C)C` (stereo not shown) [Compound A4, 3-{2,6-difluoro-4-[4,5-dihydro-6-(3-methyloxy-4,4-dimethylpentyl)naphtho[1,2-d]thiazol-2-ylcabamoyl]phenyl}-2-methylacrylic acid]: 1.8 nM. For `CCCCOCCCc1cccc2c1CCc1sc(NC(=O)c3cc(F)c(C=C(C)C(=O)O)c(F)c3)nc1-2` [Compound A5, 3-{4-[6-(3-n-butyloxypropyl)-4,5-dihydronaphto[1,2-d]thiazol-2-ylcabamoyl]-2,6-difluorophenyl}-2-methylacrylic acid] the value was 1.91 nM. As to `CC(=Cc1c(F)cc(C(=O)Nc2nc3c(s2)CCc2c(CCCOCC(C)(C)C)cccc2-3)cc1F)C(=O)O` [Compound A6, 3-(2,6-difluoro-4-{4,5-dihydro-6-[3-(2,2-dimethylpropyloxy)propyl]naphtho[1,2-d]thiazol-2-ylcabamoyl}phenyl)-2-methylacrylic acid], the EC50 was 1.04 nM. On to `CC(=Cc1c(F)cc(C(=O)Nc2nc3c(s2)CCc2c(CCCOC(C)C)cccc2-3)cc1F)C(=O)O` [Compound A7, 3-{2,6-difluoro-4-[4,5-dihydro-6-(3-isopropyloxypropyl)naphtho[1,2-d]thiazol-2-ylcabamoyl]phenyl}-2-methylacrylic acid], for which the EC50 was 2.26 nM. Next, `CCCOCCCc1cccc2c1CCc1sc(NC(=O)c3cc(F)c(C=C(C)C(=O)O)c(F)c3)nc1-2` [Compound A9, 3-{2,6-difluoro-4-[4,5-dihydro-6-(3-n-propyloxypropyl)naphto[1,2-d]thiazol-2-ylcabamoyl]phenyl}-2-methylacrylic acid]: 3 nM; `CCOCCCc1cccc2c1CCc1sc(NC(=O)c3cc(Cl)c(C=C(C)C(=O)O)c(Cl)c3)nc1-2` [Compound A10, 3-{2,6-dichloro-4-[4,5-dihydro-6-(3-ethyloxypropyl)naphtho[1,2-d]thiazol-2-ylcabamoyl]phenyl}-2-methylacrylic acid]: 1.2 nM; `CCCCOCCCc1cccc2c1CCc1sc(NC(=O)c3cc(Cl)c(C=C(C)C(=O)O)c(Cl)c3)nc1-2` [Compound A11, 3-{4-[6-(3-n-butyloxypropyl)-4,5-dihydronaphtho[1,2-d]thiazol-2-ylcabamoyl]-2,6-dichlorophenyl}-2-methylacrylic acid]: 0.87 nM. For `CCCC(CCc1cccc2c1CCc1sc(NC(=O)c3cc(F)c(C=C(C)C(=O)O)c(F)c3)nc1-2)OC` (stereo not shown) [Compound A12, 3-{2,6-difluoro-4-[4,5-dihydro-6-(3-methyloxyhexyl)naphtho[1,2-d]thiazol-2-ylcabamoyl]phenyl}-2-methylacrylic acid] the value was 0.8 nM; for `CCCOCCCc1cccc2c1OCc1sc(NC(=O)c3cc(Cl)c(/C=C(\C)C(=O)O)c(Cl)c3)nc1-2` [Compound A1123, (E)-3-{2,6-dichloro-4-[6-(3-propyloxypropyl)-4H-chromeno[4,3-d]thiazol-2-ylcabamoyl]phenyl}-2-methylacrylic acid], 7.27 nM. Next, `CCCc1cccc2c1OCc1sc(NC(=O)c3cc(F)c(/C=C(\C)C(=O)O)c(F)c3)nc1-2` [Compound A1308, (E)-3-[2,6-difluoro-4-(6-propyl-4H-chromeno[4,3-d]thiazol-2-ylcabamoyl)phenyl]-2-methylacrylic acid]: 12.9 nM. On to `C/C(=C\c1c(F)cc(C(=O)Nc2nc3c(s2)COc2c-3cccc2C(C)C)cc1F)C(=O)O` [Compound A1309, (E)-3-[2,6-difluoro-4-(6-isopropyl-4H-chromeno[4,3-d]thiazol-2-ylcarbamoyl)phenyl]-2-methylacrylic acid], for which the EC50 amounted to 12.8 nM. For `CCc1cccc2c1OCc1sc(NC(=O)c3cc(Cl)c(/C=C(\C)C(=O)O)c(Cl)c3)nc1-2` [Compound A1310, (E)-3-[2,6-dichloro-4-(6-ethyl-4H-chromeno[4,3-d]thiazol-2-ylcabamoyl)phenyl]-2-methylacrylic acid] the value was 12.3 nM; for `CCCc1cccc2c1OCc1sc(NC(=O)c3cc(Cl)c(/C=C(\C)C(=O)O)c(Cl)c3)nc1-2` [Compound A1311, (E)-3-[2,6-dichloro-4-(6-propyl-4H-chromeno[4,3-d]thiazol-2-ylcabamoyl)phenyl]-2-methylacrylic acid], 8.86 nM; for `C/C(=C\c1c(Cl)cc(C(=O)Nc2nc3c(s2)COc2c-3cccc2C(C)C)cc1Cl)C(=O)O` [Compound A1312, (E)-3-[2,6-dichloro-4-(6-isopropyl-4H-chromeno[4,3-d]thiazol-2-ylcabamoyl)phenyl]-2-methylacrylic acid], 10.8 nM. On to `CCCCCCc1cccc2c1OCc1sc(NC(=O)c3cc(F)c(/C=C(\C)C(=O)O)c(F)c3)nc1-2` [Compound A1314, (E)-3-[2,6-difluoro-4-(6-hexyl-4H-chromeno[4,3-d]thiazol-2-ylcabamoyl)phenyl]-2-methylacrylic acid], for which the EC50 amounted to 12.5 nM. For `C/C(=C\c1c(F)cc(C(=O)Nc2nc3c(s2)COc2c(CCC(C)(C)C)cccc2-3)cc1F)C(=O)O` [Compound A1315, (E)-3-{4-[6-(3,3-dimethylbutyl)-4H-chromeno[4,3-d]thiazol-2-ylcabamoyl]-2,6-difluorophenyl}-2-methylacrylic acid] the value was 12.5 nM.

Consider `CCCCCCc1cccc2c1OCc1sc(NC(=O)c3cc(Cl)c(/C=C(\C)C(=O)O)c(Cl)c3)nc1-2` [Compound A1316, (E)-3-[2,6-dichloro-4-(6-hexyl-4H-chromeno[4,3-d]thiazol-2-ylcabamoyl)phenyl]-2-methylacrylic acid], for which the EC50 came to 5.29 nM.

`C/C(=C\c1c(Cl)cc(C(=O)Nc2nc3c(s2)COc2c(CCC(C)(C)C)cccc2-3)cc1Cl)C(=O)O` [Compound A1317, (E)-3-{2,6-dichloro-4-[6-(3,3-dimethylbutyl)-4H-chromeno[4,3-d]thiazol-2-ylcabamoyl]phenyl}-2-methylacrylic acid]: the EC50 was 15.1 nM.
